Measured values taken from ChEMBL document CHEMBL1201862, “PubChem BioAssay data set” (2004).
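Cultured in 96-well plates, cells were exposed to test compound for 48 hours across five concentrations. GI50: concentration for 50% inhibition of growth.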 Activity calls are given as the source filed them. Rule as the data show it: active = GI50 up to about 1.1 µM and inactive = higher.

Legend:
Test in all cases: inhibition of tumour cell growth, NCI panel, 48 h
[1] = test system: SK-OV-3
[2] = test system: EKVX
[3] = test system: SNB-75
[4] = test system: Hs-578T
[5] = test system: IGROV-1
[6] = test system: RPMI-8226
[7] = test system: HOP-62
[8] = test system: OVCAR-3
[9] = test system: U-251
[10] = test system: COLO 205
[11] = test system: HOP-92
[12] = test system: MDA-MB-231
[13] = test system: UACC-257
[14] = test system: HL-60
[15] = test system: A498
[16] = test system: NCI-H226
[17] = test system: ACHN
[18] = test system: KM12
[19] = test system: HT-29
[20] = test system: SN12C

Compound | GI50 [1] | GI50 [2] | GI50 [3] | GI50 [4] | GI50 [5] | GI50 [6] | GI50 [7] | GI50 [8] | GI50 [9] | GI50 [10] | GI50 [11] | GI50 [12] | GI50 [13] | GI50 [14] | GI50 [15] | GI50 [16] | GI50 [17] | GI50 [18] | GI50 [19] | GI50 [20]
Cc1cn(CCC(N)C(=O)O)c(=O)[nH]c1=O (configuration not stated) | > 100 µM (inactive) | > 100 µM (inactive) | > 100 µM (inactive) | > 100 µM (inactive) | > 100 µM (inactive) | > 100 µM (inactive) | > 100 µM (inactive) | > 100 µM (inactive) | > 100 µM (inactive) | > 100 µM (inactive) | > 100 µM (inactive) | > 100 µM (inactive) | > 100 µM (inactive) | > 100 µM (inactive) | > 100 µM (inactive) | > 100 µM (inactive) | > 100 µM (inactive) | > 100 µM (inactive) | > 100 µM (inactive) | > 100 µM (inactive)
COC1=CC(=O)C(C2(OC(C)C)OC(=O)C(Cl)=C2Cl)=CC1=O (configuration not stated) | > 100 µM (inactive) | > 100 µM (inactive) | > 100 µM (inactive) | > 100 µM (inactive) | – | > 100 µM (inactive) | > 100 µM (inactive) | > 100 µM (inactive) | – | > 100 µM (inactive) | > 100 µM (inactive) | > 100 µM (inactive) | > 100 µM (inactive) | < 0.01 µM (active) | > 100 µM (inactive) | > 100 µM (inactive) | 51.4 µM (inactive) | > 100 µM (inactive) | > 100 µM (inactive) | > 100 µM (inactive)
C=C(CCCCCCCCC)CC(=O)SCCNC(=O)CCNC(=O)C(O)C(C)(C)COP(=O)(O)OP(=O)(O)OCC1OC(n2cnc3c(N)ncnc32)C(O)C1OP(=O)(O)O (configuration not stated) | > 100 µM (inactive) | 51.2 µM (inactive) | 30 µM (inactive) | > 64.4 µM (inactive) | 98.2 µM (inactive) | 23.8 µM (inactive) | 40.9 µM (inactive) | 77.8 µM (inactive) | 49.9 µM (inactive) | > 100 µM (inactive) | 75.5 µM (inactive) | > 77.8 µM (inactive) | 48.1 µM (inactive) | 36.1 µM (inactive) | > 100 µM (inactive) | > 100 µM (inactive) | > 100 µM (inactive) | 52.6 µM (inactive) | 68.2 µM (inactive) | > 84.3 µM (inactive)
COc1cc2c(c3c1c(=O)c1ccccc1n3C)C=CC1(CCCC1)O2 | 21.6 µM (inactive) | 13.5 µM (inactive) | 11.8 µM (inactive) | 2.61 µM (inactive) | 12.9 µM (inactive) | 1.81 µM (inactive) | 12.8 µM (inactive) | 13.2 µM (inactive) | 12.8 µM (inactive) | 13.6 µM (inactive) | 16.6 µM (inactive) | 12.4 µM (inactive) | 15.9 µM (inactive) | 7.29 µM (inactive) | 18 µM (inactive) | 16 µM (inactive) | 16.3 µM (inactive) | 7.05 µM (inactive) | 7.05 µM (inactive) | 19.1 µM (inactive)
NCCCN1CCN(CC(=O)O)CCN(CCCN)CCN(CC(=O)O)CC1 | > 92 µM (inactive) | > 77.6 µM (inactive) | > 100 µM (inactive) | > 100 µM (inactive) | 43.9 µM (inactive) | 17.4 µM (inactive) | > 100 µM (inactive) | > 31.8 µM (inactive) | > 100 µM (inactive) | 33.7 µM (inactive) | > 100 µM (inactive) | > 100 µM (inactive) | > 100 µM (inactive) | 15.3 µM (inactive) | > 100 µM (inactive) | > 100 µM (inactive) | > 100 µM (inactive) | 28.3 µM (inactive) | > 19.9 µM (inactive) | > 100 µM (inactive)
Cc1ccccc1C1CC(=O)CC(c2ccccc2C)C12C(=O)NC(=O)NC2=O (configuration not stated) | > 100 µM (inactive) | > 100 µM (inactive) | > 100 µM (inactive) | > 100 µM (inactive) | 62.5 µM (inactive) | 26.9 µM (inactive) | > 100 µM (inactive) | > 100 µM (inactive) | > 100 µM (inactive) | > 100 µM (inactive) | 19 µM (inactive) | > 100 µM (inactive) | > 100 µM (inactive) | 55 µM (inactive) | > 100 µM (inactive) | > 100 µM (inactive) | > 100 µM (inactive) | > 100 µM (inactive) | > 100 µM (inactive) | 1.98 µM (inactive)
COc1cc2c(c(O)c1OC)-c1c(cc(OC)c(OC)c1OC)CC(C)C(C)C2 (configuration not stated) [GOMISIN K3] | 82.4 µM (inactive) | 47.3 µM (inactive) | 34.3 µM (inactive) | 69.8 µM (inactive) | 51.1 µM (inactive) | 39.4 µM (inactive) | > 100 µM (inactive) | 47.1 µM (inactive) | 49.9 µM (inactive) | 32 µM (inactive) | 36.7 µM (inactive) | 37.8 µM (inactive) | 25.6 µM (inactive) | 25.5 µM (inactive) | 35.1 µM (inactive) | 42.8 µM (inactive) | 39.1 µM (inactive) | 61.1 µM (inactive) | 40.6 µM (inactive) | 47.8 µM (inactive)
CC(C)=C1C(=O)C[C@]2(C)C[C@H]3/C(=C(/C)CCC12)CC[C@@]3(C)O (some centres not stated) | > 50 µM (inactive) | > 50 µM (inactive) | 19.1 µM (inactive) | > 50 µM (inactive) | > 50 µM (inactive) | > 50 µM (inactive) | > 50 µM (inactive) | 37.7 µM (inactive) | > 50 µM (inactive) | 45 µM (inactive) | > 50 µM (inactive) | > 50 µM (inactive) | > 50 µM (inactive) | 11.3 µM (inactive) | > 50 µM (inactive) | > 50 µM (inactive) | > 50 µM (inactive) | 18.2 µM (inactive) | > 50 µM (inactive) | > 50 µM (inactive)
Cc1noc2nnn(-c3ccc(Cl)cc3)c(=O)c12 | 5.52 µM (inactive) | 7.11 µM (inactive) | 1.1 µM (active) | 18.6 µM (inactive) | 5.33 µM (inactive) | 0.36 µM (active) | 12.8 µM (inactive) | 2.36 µM (inactive) | 4.92 µM (inactive) | 2.96 µM (inactive) | 6.4 µM (inactive) | 8.95 µM (inactive) | 7.5 µM (inactive) | 1.39 µM (inactive) | 13.5 µM (inactive) | 2.61 µM (inactive) | 3.59 µM (inactive) | 11.7 µM (inactive) | 4.42 µM (inactive) | 3.89 µM (inactive)
O=C1Nc2ccccc2/C1=N/NC(=S)N1CCCC1 | 5.12 µM (inactive) | 2.37 µM (inactive) | 3.45 µM (inactive) | 2.13 µM (inactive) | 1.87 µM (inactive) | 0.743 µM (active) | 1.19 µM (inactive) | 0.53 µM (active) | 0.867 µM (active) | 1.44 µM (inactive) | 8.38 µM (inactive) | 6.58 µM (inactive) | 6.97 µM (inactive) | 0.583 µM (active) | 2.95 µM (inactive) | 0.247 µM (active) | 0.64 µM (active) | 2.4 µM (inactive) | 1.19 µM (inactive) | 1.91 µM (inactive)
CC(C)=CCC[C@@H](C)C1=C(N)C(=O)C(C)=C(O)C1=O | 71.1 µM (inactive) | 30.6 µM (inactive) | 40.6 µM (inactive) | 34.9 µM (inactive) | 29.9 µM (inactive) | 39.8 µM (inactive) | 55.1 µM (inactive) | 33 µM (inactive) | 31.8 µM (inactive) | 29.2 µM (inactive) | 57.4 µM (inactive) | 67.5 µM (inactive) | > 75 µM (inactive) | 13 µM (inactive) | 29.9 µM (inactive) | 27.5 µM (inactive) | 18.8 µM (inactive) | 32.7 µM (inactive) | 15.6 µM (inactive) | 45.8 µM (inactive)
CC(C)C1OCC(CO)CO1 (configuration not stated) | > 100 µM (inactive) | > 100 µM (inactive) | > 100 µM (inactive) | > 100 µM (inactive) | – | > 100 µM (inactive) | > 100 µM (inactive) | > 100 µM (inactive) | > 100 µM (inactive) | > 100 µM (inactive) | > 100 µM (inactive) | > 100 µM (inactive) | > 100 µM (inactive) | > 100 µM (inactive) | > 100 µM (inactive) | > 100 µM (inactive) | > 100 µM (inactive) | > 100 µM (inactive) | > 100 µM (inactive) | > 100 µM (inactive)
Cc1c(-c2ccccc2)c(C#N)c2nnn(-c3ccccc3)c(=O)n12 | > 100 µM (inactive) | > 100 µM (inactive) | > 100 µM (inactive) | > 100 µM (inactive) | > 100 µM (inactive) | > 100 µM (inactive) | 44.2 µM (inactive) | 85.1 µM (inactive) | 48.8 µM (inactive) | 54.1 µM (inactive) | > 100 µM (inactive) | > 100 µM (inactive) | > 100 µM (inactive) | 84.1 µM (inactive) | 65.8 µM (inactive) | > 100 µM (inactive) | 76.4 µM (inactive) | 75.7 µM (inactive) | 29 µM (inactive) | > 100 µM (inactive)
Cc1ccc(-c2cc(-c3cc(-c4ccc(C)cc4C)[nH]n3)[nH]n2)c(C)c1 | 15.2 µM (inactive) | 20.7 µM (inactive) | 18.3 µM (inactive) | 18.1 µM (inactive) | 13.7 µM (inactive) | 2.66 µM (inactive) | 13.9 µM (inactive) | 12.2 µM (inactive) | 13.5 µM (inactive) | 12.7 µM (inactive) | 18.9 µM (inactive) | 16.2 µM (inactive) | 12.4 µM (inactive) | 0.027 µM (active) | 16.6 µM (inactive) | 20.5 µM (inactive) | 11.5 µM (inactive) | 17.7 µM (inactive) | 10.8 µM (inactive) | 15.3 µM (inactive)
